For 2 compounds, IC50 and Activity results are on record in ChEMBL document CHEMBL3091442, “Synthesis and antitumor activity evaluation of maleopimaric acid N-aryl imide atropisomers” (Bioorg Med Chem Lett, 2013).

The test system of test [1] is A549. In words: Cytotoxicity against human A549 cells after 72 hrs by MTT assay. The following applies: A549, 72 h. Type of test: functional, cell-based. (Tetrazolium dyes change colour on reduction, which living cells bring about.)
The test system of test [2] is HepG2. In words: Cytotoxicity against human HepG2 cells after 72 hrs by MTT assay. The test is classed as functional, cell-based. The following applies: HepG2, 72 h.
The subject of test [3] is MGC-803. In words: Cytotoxicity against human MGC803 cells after 72 hrs by MTT assay. The following applies: MGC-803, 72 h. Type of test: functional, cell-based.
Test [4] has as its system HCT-116. In words: Cytotoxicity against human HCT116 cells after 72 hrs by MTT assay. The test is classed as functional, cell-based. The settings on record: HCT-116, 72 h.
Test [5] relates to NCI-H460. In words: Cytotoxicity against human NCI-H460 cells after 72 hrs by MTT assay. The test is classed as functional, cell-based. The following applies: NCI-H460, 72 h.
The test system of test [6] is NCI-H460. In words: Cell cycle arrest in human NCI-H460 cells assessed as accumulation at diploid S phase at IC50 after 48 hrs by propidium iodide staining-based FACS analysis (reference value: 23.27%). The test is classed as functional. On the technique in general: In flow cytometry, cells or beads pass a laser one at a time.
Test [7] concerns NCI-H460. In words: Cell cycle arrest in human NCI-H460 cells assessed as accumulation at diploid G2 phase at IC50 after 48 hrs by propidium iodide staining-based FACS analysis (reference value: 8.14%). The test is classed as functional.
Test [8] has as its system NCI-H460. In words: Cell cycle arrest in human NCI-H460 cells assessed as accumulation at diploid G1 phase at IC50 after 48 hrs by propidium iodide staining-based FACS analysis (reference value: 68.60%). Type of test: functional.
For test [9], the system named is NCI-H460. In words: Induction of apoptosis in human NCI-H460 cells assessed as late apoptotic cells at 45 uM after 24 hrs by Annexin V-FITC/propidium iodide staining-based flow cytometry (reference value: 0.8%). The test is classed as functional.
Test [10] deals with NCI-H460. In words: Induction of apoptosis in human NCI-H460 cells assessed as early apoptotic cells at 45 uM after 24 hrs by Annexin V-FITC/propidium iodide staining-based flow cytometry (reference value: 1.5%). The test is classed as functional.

With `CC(C)C1=C[C@]23CC[C@@H]4[C@](C)(CCC[C@@]4(C)C(=O)O)[C@H]2C[C@H]1[C@H]1C(=O)OC(=O)[C@H]13`, the half-maximal inhibitory concentration (IC50) (commonly the point on the concentration scale where inhibition reaches its midpoint) in test [1] is 81.2 µM; in test [2], above 100 µM; in test [3], 61.8 µM; in [4], 98.7 µM; in [5], above 100 µM.
For the compound `O=c1[nH]cc(F)c(=O)[nH]1` [FLUOROURACIL], the Activity was determined as 28.07% in test [6]; 0% in test [7]; 71.93% in [8]; 6.5% in test [9]; 16.8% in test [10]. Besides, the IC50 came to 20.1 µM in test [1]; 19.4 µM in test [2]; 15.3 µM in test [3]; 8.32 µM in [4]; 23.3 µM in test [5].
